Like-named read-outs stand apart in the source and are kept apart here.
Legend:
[1] = molecular target: T1, SARS-CoV-2 nsp14 MTase (Severe acute respiratory syndrome coronavirus 2, UniProt P0DTD1); experiment: biochemical; assay type: biochemical; details: for nsp14 Inhibition % (100µM) Exp 1 / nsp14 Inhibition % (100µM) Exp 2: compound 100µM; for nsp14 Inhibition % (100µM) Exp 1: replicate experiment 1; for nsp14 Inhibition % (100µM) Exp 2: replicate experiment 2
[2] = molecular target: T1, SARS-CoV-2 nsp14 MTase; details: inhibition of nsp14 methyltransferase activity; cited from earlier work

NC(CCCNc1nc(O)c(-c2ccccc2)c(=O)[nH]1)C(=O)O (stereo not shown) [NSC132916]
nsp14 Inhibition % (100µM) Exp 1 [1]: −1% | nsp14 Inhibition % (100µM) Exp 2 [1]: −3%

O=C(O)/C=C\C(=O)NCC1CCC(CNC(=O)/C=C\C(=O)O)CC1 (stereo not shown) [NSC137050]
nsp14 Inhibition % (100µM) Exp 1 [1]: 6% | nsp14 Inhibition % (100µM) Exp 2 [1]: −1%

NS(=O)(=O)c1ccc(NC2OCC(O)C(O)C2O)cc1 (stereo not shown) [NSC158437]
nsp14 Inhibition % (100µM) Exp 1 [1]: 5% | nsp14 Inhibition % (100µM) Exp 2 [1]: 1%

Nc1ncnc2c1ncn2C1OC(C(=O)NCC(=O)O)C(O)C1O (stereo not shown) [NSC163444]
nsp14 Inhibition % (100µM) Exp 1 [1]: 9% | nsp14 Inhibition % (100µM) Exp 2 [1]: 5%

O=C(O)c1cc(=O)n(CCCCCCn2c(=O)cc(C(=O)O)[nH]c2=O)c(=O)[nH]1 [NSC232469]
nsp14 Inhibition % (100µM) Exp 1 [1]: 7% | nsp14 Inhibition % (100µM) Exp 2 [1]: −7%

O=P(O)(O)OC[C@H]1O[C@@H](n2cnc3c(NCc4ccccc4)ncnc32)[C@H](O)[C@@H]1O [NSC255523]
nsp14 Inhibition % (100µM) Exp 1 [1]: 59% | nsp14 Inhibition % (100µM) Exp 2 [1]: 33%

CC(C)=CCNc1ncnc2c1ncn2[C@@H]1O[C@H](COP(=O)(O)O)[C@@H](O)[C@H]1O [NSC268226]
nsp14 Inhibition % (100µM) Exp 1 [1]: 9% | nsp14 Inhibition % (100µM) Exp 2 [1]: 0%

Cn1c(=O)c2c(ncn2CCCNCC(O)c2ccc(O)c(CO)c2)n(C)c1=O (stereo not shown) [NSC293892]
nsp14 Inhibition % (100µM) Exp 1 [1]: 15% | nsp14 Inhibition % (100µM) Exp 2 [1]: 3%

CC(CCc1ccc2c(c1)OCO2)NCC(O)c1ccc(O)c(C(N)=O)c1 (stereo not shown) [NSC313453]
inhibition at 100 µM ([1]; read-out: nsp14 Inhibition % (100µM) Exp 1): 3% | inhibition at 100 µM ([1]; read-out: nsp14 Inhibition % (100µM) Exp 2): -5%

O=C(O)CCC(=O)NCC1CCCC(CNC(=O)CCC(=O)O)C1 (stereo not shown) [NSC317609]
nsp14 Inhibition % (100µM) Exp 1 [1]: 7% | nsp14 Inhibition % (100µM) Exp 2 [1]: 1%

O=P(O)(O)OC1OC(n2cnc3c(NCc4ccc(F)cc4)ncnc32)C(O)C1O (stereo not shown) [NSC330685]
nsp14 Inhibition % (100µM) Exp 1 [1]: 4% | nsp14 Inhibition % (100µM) Exp 2 [1]: 2%

O=C(O)C(Cc1ccc(O)cc1)NC(c1ccccc1)P(=O)(O)O (stereo not shown) [NSC377438]
nsp14 Inhibition % (100µM) Exp 1 [1]: 8% | nsp14 Inhibition % (100µM) Exp 2 [1]: −3%

NC(CSCCSCCSCC(N)C(=O)O)C(=O)O (stereo not shown) [NSC400718]
nsp14 Inhibition % (100µM) Exp 1 [1]: 89% | nsp14 Inhibition % (100µM) Exp 2 [1]: 88% | IC50 ([1]; nsp14 MTase activity, high-throughput screening follow-up, read-out: IC50): 38 µM

O=S(=O)(O)c1ccc(N=Nc2c(O)ccc3n[nH]nc23)cc1 [NSC400937]
nsp14 Inhibition % (100µM) Exp 1 [1]: 73% | nsp14 Inhibition % (100µM) Exp 2 [1]: 66%

O=c1ccn(C2OC(C(O)CO)C(O)C2O)c(=O)[nH]1 (stereo not shown) [NSC613624]
nsp14 Inhibition % (100µM) Exp 1 [1]: 4% | nsp14 Inhibition % (100µM) Exp 2 [1]: −1%

COc1cc(N=Nc2ccccc2C(=O)O)cc(/C=N/NNC(N)=S)c1O [NSC630814]
nsp14 Inhibition % (100µM) Exp 1 [1]: 84% | nsp14 Inhibition % (100µM) Exp 2 [1]: 82%

O=C1NC(=O)C(C(=O)C(=O)Nc2cccc(C(F)(F)F)c2)C(=O)N1 [NSC646375]
nsp14 Inhibition % (100µM) Exp 1 [1]: 26% | nsp14 Inhibition % (100µM) Exp 2 [1]: 20%

NC(CCCC(N)P(=O)(O)c1ccccc1)P(=O)(O)c1ccccc1 (stereo not shown) [NSC655184]
nsp14 Inhibition % (100µM) Exp 1 [1]: 7% | nsp14 Inhibition % (100µM) Exp 2 [1]: −11%

O=C(O)c1ccc(Nc2nc3ccccc3nc2C(=O)O)cc1 [NSC670682]
nsp14 Inhibition % (100µM) Exp 1 [1]: 50% | nsp14 Inhibition % (100µM) Exp 2 [1]: 54%

N#Cc1cn([C@@H]2O[C@H](CSCC[C@H](N)C(=O)O)C(O)[C@@H]2O)c2ncnc(N)c12 (stereo partly shown) [SS148]
IC50 [2]: 0.07 ± 0.006 µM

Source: article doi:10.1101/2023.10.03.560722, “Drug Discovery in Low Data Regimes: Leveraging a Computational Pipeline for the Discovery of Novel SARS-CoV-2 Nsp14-MTase Inhibitors” (bioRxiv, 2024)
